# In US10377783B2, “Methods and compounds for enhancing contrast in magnetic resonance imaging (MRI)” (priority 2015, dated 2019):
# Legend:
# male Sprague-Dawley rats = assay: In vivo acute toxicity; design: species or system rat
# Protocol: Compound 1 (aq., 12.5 mM) was injected intravenously into 4 male rats (Sprague Dawley Crl:SD, 315-340 g) at a dosage of 0.02 mmol/kg following anaesthesia with 5% isoflurane. […] Body weight measurements and hematology were performed on days −1, 7 and 14. Compound 6 (aq., 6.25 mM) was injected intravenously into 8 male rats (Sprague Dawley Crl:SD, 327-365 g) at a dosage of 0.01 mmol/kg following anaesthesia with 5% isoflurane. […] Body weight measurements and hematology were performed on days −1, 1 and 8. Following euthanasia, the heart, lungs, liver, kidneys, spleen, thyroid and pituitary glands were grossly examined during necropsy, and samples of the brain, heart (compound 1 only), lungs, liver, kidneys, spleen and thymus (compound 1 only) were microscopically evaluated during histopathological examination.
# The acute toxicities of 1 and 6 were studied in 8 week old male Sprague-Dawley rats. The toxicity of 1 was studied over a period of 14 days, in four rats; while the toxicity of 6 was studied over a period of 8 days, in 8 rats. Compound 1 was injected intravenously at a dosage of 0.02 mmol/kg (c=12.5 mM), while 6 was injected at a dosage of 0.01 mmol/kg (c=6.25 mM). These dosages were chosen because the dosage for the only Mn^II-based compound approved in North America, Teslascan, was 0.005 mmol/kg; and the inventors were anticipating a […] degree of toxicity.
# [1] = tested on: male rats (Sprague Dawley Crl:SD); assay: In vivo MRI imaging of 1, predominantly T1-weighted RARE fast-spin-echo scans; design: species or system rat; conditions: 0.02 mmol/kg iv; for MRI signal intensity, bladder: baseline (−10 min) 414.3; for MRI signal intensity, skeletal muscle: baseline (−10 min) 432.1; for MRI signal intensity, renal pelvis: baseline (−10 min) 465.7; for MRI signal intensity, renal medulla: baseline (−10 min) 480.8; for MRI signal intensity, liver: baseline (−10 min) 498.6; for MRI signal intensity, renal cortex: baseline (−10 min) 579.1
# Protocol: Compound 1 (aq., 12.5 mM) was injected intravenously into 2 male rats (Sprague Dawley Crl:SD, 312-338 g) at a dosage of 0.02 mmol/kg following anaesthesia with 5% isoflurane. Compound 2 (aq., 6.25 mM) was injected intravenously into 1 male rat (Sprague Dawley Crl:SD, 349 g) at a dosage of 0.01 mmol/kg following anaesthesia with 5% isoflurane. Compound 6 (aq., 6.25 mM) was injected intravenously into 1 male rat (Sprague Dawley Crl:SD, 341 g) at a dosage of 0.01 mmol/kg following anaesthesia with 5% isoflurane. Anesthesia was maintained at 2-2.5% isoflurane through a nose cone for the duration of the scans. Fast-spin-echo images were collected for 45 mins. immediately post-injection. For compound 1, the DT1-weighted RARE (Rapid Acquisition Relaxation Enhancement) scans were acquired with an echo time of 10 ms, and a repetition time=respiratory cycle duration (˜1100 ms). Both T1- and T2-weighted scans were collected on compounds 2 and 6.
# The in vivo contrast potential of compounds 1, 2 and 6 were studied via the collection of fast-spin-echo images for 30-45 minutes immediately following injection of an aqueous solution of each complex. The dosage chosen for 1 was 0.02 mmol/kg (c=[…]) while the dosage chosen for 2 and 6 was 0.01 mmol/kg (c=6.25 mM). Predominantly T1-weighted scans with some T2-weighting were performed on two rats injected with 1.
# [2] = percentage of the initial intensity, first 45 min
smiles,measurement,setting,value
"CC1=NCCNCCNCCN=C(C)c2cccc1n2.O.O.[Cl-].[Cl-].[Mn+2] [Compound 1, [MnL1Cl2].2H2O]",acute toxicity (overall),"male Sprague-Dawley rats; 0.02 mmol/kg iv, 4 rats, 14 days",minimally- to non-acutely toxic
same,toxicity (summary of the in vivo studies),male Sprague-Dawley rats; at the studied dosages,negligible toxicity
same,excretion (summary),[1],rapid excretion
same,time to appearance in the bladder,[1],≤ 5 min
same,"MRI signal intensity, bladder",[1]; 2 min after injection,454.3 arbitrary units of voxel intensity
same,"MRI signal intensity, skeletal muscle",[1]; 2 min after injection,358.5 arbitrary units of voxel intensity
same,"MRI signal intensity, renal pelvis",[1]; 2 min after injection,881.1 arbitrary units of voxel intensity
same,"MRI signal intensity, renal medulla",[1]; 2 min after injection,608.9 arbitrary units of voxel intensity
same,"MRI signal intensity, liver",[1]; 2 min after injection,458.8 arbitrary units of voxel intensity
same,"MRI signal intensity, renal cortex",[1]; 2 min after injection,635.2 arbitrary units of voxel intensity
same,"MRI signal intensity, bladder",[1]; 10 min after injection,1093.1 arbitrary units of voxel intensity
same,"MRI signal intensity, skeletal muscle",[1]; 10 min after injection,354.3 arbitrary units of voxel intensity
same,"MRI signal intensity, renal pelvis",[1]; 10 min after injection,920.7 arbitrary units of voxel intensity
same,"MRI signal intensity, renal medulla",[1]; 10 min after injection,561.8 arbitrary units of voxel intensity
same,"MRI signal intensity, liver",[1]; 10 min after injection,436.2 arbitrary units of voxel intensity
same,"MRI signal intensity, renal cortex",[1]; 10 min after injection,683.4 arbitrary units of voxel intensity
same,"MRI signal intensity, bladder",[1]; 15 min after injection,1147.9 arbitrary units of voxel intensity
same,"MRI signal intensity, skeletal muscle",[1]; 15 min after injection,346.5 arbitrary units of voxel intensity
same,"MRI signal intensity, renal pelvis",[1]; 15 min after injection,806.3 arbitrary units of voxel intensity
same,"MRI signal intensity, renal medulla",[1]; 15 min after injection,524.4 arbitrary units of voxel intensity
same,"MRI signal intensity, liver",[1]; 15 min after injection,410.2 arbitrary units of voxel intensity
same,"MRI signal intensity, renal cortex",[1]; 15 min after injection,660.3 arbitrary units of voxel intensity
same,"MRI signal intensity, bladder",[1]; 20 min after injection,1046.4 arbitrary units of voxel intensity
same,"MRI signal intensity, skeletal muscle",[1]; 20 min after injection,337.5 arbitrary units of voxel intensity
same,"MRI signal intensity, renal pelvis",[1]; 20 min after injection,733.9 arbitrary units of voxel intensity
same,"MRI signal intensity, renal medulla",[1]; 20 min after injection,502.9 arbitrary units of voxel intensity
same,"MRI signal intensity, liver",[1]; 20 min after injection,424.5 arbitrary units of voxel intensity
same,"MRI signal intensity, renal cortex",[1]; 20 min after injection,717.0 arbitrary units of voxel intensity
same,"MRI signal intensity, bladder",[1]; 30 min after injection,970.1 arbitrary units of voxel intensity
same,"MRI signal intensity, skeletal muscle",[1]; 30 min after injection,330.6 arbitrary units of voxel intensity
same,"MRI signal intensity, renal pelvis",[1]; 30 min after injection,704.7 arbitrary units of voxel intensity
same,"MRI signal intensity, renal medulla",[1]; 30 min after injection,512.6 arbitrary units of voxel intensity
same,"MRI signal intensity, liver",[1]; 30 min after injection,398.0 arbitrary units of voxel intensity
same,"MRI signal intensity, renal cortex",[1]; 30 min after injection,775.4 arbitrary units of voxel intensity
same,"MRI signal intensity, bladder",[1]; 45 min after injection,1030.1 arbitrary units of voxel intensity
same,"MRI signal intensity, skeletal muscle",[1]; 45 min after injection,351.0 arbitrary units of voxel intensity
same,"MRI signal intensity, renal pelvis",[1]; 45 min after injection,666.1 arbitrary units of voxel intensity
same,"MRI signal intensity, renal medulla",[1]; 45 min after injection,520.6 arbitrary units of voxel intensity
same,"MRI signal intensity, liver",[1]; 45 min after injection,369.8 arbitrary units of voxel intensity
same,"MRI signal intensity, renal cortex",[1]; 45 min after injection,804.1 arbitrary units of voxel intensity
same,liver signal,[1]; first 45 minutes,gradual liver hypoenhancement
same,renal cortical signal,[1]; first 45 minutes,slow increase in the renal cortical signal
same,"Max. intensity change, bladder",[1]; [2],177%
same,"Max. intensity change, liver",[1]; [2],−26%
same,"Max. intensity change, renal cortex",[1]; [2],39%
same,"Max. intensity change, renal medulla",[1]; [2],27%
same,"Max. intensity change, renal pelvis",[1]; [2],98%
same,"Max. intensity change, skeletal muscle",[1]; [2],−23%
same,retention in tissues or organs,[1]; scans 3 hours post-injection,no evidence of compound 1 being retained by any tissue or organ
